Measured values from patent US20080287653A1, “METHOD FOR PRODUCING INHIBITORS AND INHIBITORS FORMED THEREFROM” (THE UNIVERSITY OF AKRON, priority 2007, published 2008).
Non-standard residues stand in square brackets, D forms with d. Residues, ends and D or L forms follow the SMILES beside them. Lys(Thioacetyl) = CC(=S)NCCCC[C@H](N)C(=O)O

Assays:
SIRT2 = target: T1, SIRT2 (Homo sapiens, UniProt Q8IXJ6); test: HPLC-based SIRT2 inhibition assay with purified SIRT2; type: biochemical; details: SIRT2 vs SIRT3
T1 construct: purchased
T1 sequence (Q8IXJ6 1-389): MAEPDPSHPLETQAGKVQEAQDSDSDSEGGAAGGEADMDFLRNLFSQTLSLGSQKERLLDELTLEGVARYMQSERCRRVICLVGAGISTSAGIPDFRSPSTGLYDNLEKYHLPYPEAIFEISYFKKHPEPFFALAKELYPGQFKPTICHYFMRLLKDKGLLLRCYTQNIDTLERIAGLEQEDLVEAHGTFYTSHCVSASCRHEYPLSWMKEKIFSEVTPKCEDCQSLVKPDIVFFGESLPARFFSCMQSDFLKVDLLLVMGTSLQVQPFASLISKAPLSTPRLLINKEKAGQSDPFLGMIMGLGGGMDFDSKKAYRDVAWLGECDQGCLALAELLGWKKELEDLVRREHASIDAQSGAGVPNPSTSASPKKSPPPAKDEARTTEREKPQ
Procedure: (§1) Inhibition assays with purified SIRT1, SIRT2, and SIRT3. GST-SIRT1 that could be produced in a laboratory was used for the SIRT1 inhibition assay. SIRT2 and SIRT3 are obtainable from commercial sources known to those skilled in the art. Consistent HPLC-based assay procedures were used for the inhibition assays with SIRT1, SIRT2, and SIRT3. In brief, an inhibition assay solution had the following components: 25 mM (or 50 mM for SIRT2 assay) Tris.HCl (pH 8.0) 137 mM NaCl, 2.7 mM KCl, 1 mM MgCl2, 1 mg/mL BSA (SIGMA Cat. #A3803 with reduced fatty acid content, for SIRT2 assay only), 0.5 mM β-NAD^+, 0.3 mM peptide substrate (peptide 1b for SIRT1 and SIRT2 assays; peptide 3b for SIRT3 assay), an inhibitor (peptide 1a, 2, or 3a) with varied concentrations including 0, and an enzyme (GST-SIRT1, 0.15 μM; SIRT2, 0.3 μM; or SIRT3, 2.0 μM). […] An enzymatic reaction was initiated by the addition of an enzyme at 37° C. and was allowed to be incubated at 37° C.: 10 minutes as follows: for SIRT1 assay, or 60 minutes for SIRT2 and SIRT3 assays. […] The enzymatic deacetylation products (peptide 1c in SIRT1 and SIRT2 assays; peptide 3c in SIRT3 assay) were confirmed by their comigration with the chemically synthesized authentic samples and by MALDI-TOF mass spectrometric analysis, and were quantified by HPLC peak integration and comparison with those of synthetic authentic samples. […]

SIRT1, SIRT2, and SIRT3 = test: Dethioacetylation of inhibitor peptides under the sirtuin inhibition assay conditions; type: biochemical, human; details: same assay conditions as SIRT1/SIRT2/SIRT3 inhibition assays
Procedure: Inhibition assays with purified SIRT1, SIRT2, and SIRT3. GST-SIRT1 that could be produced in a laboratory was used for the SIRT1 inhibition assay. SIRT2 and SIRT3 are obtainable from commercial sources known to those skilled in the art. Consistent HPLC-based assay procedures were used for the inhibition assays with SIRT1, SIRT2, and SIRT3. In brief, an inhibition assay solution had the following components: 25 mM (or 50 mM for SIRT2 assay) Tris.HCl (pH 8.0) 137 mM NaCl, 2.7 mM KCl, 1 mM MgCl2, 1 mg/mL BSA (SIGMA Cat. #A3803 with reduced fatty acid content, for SIRT2 assay only), 0.5 mM β-NAD^+, 0.3 mM peptide substrate (peptide 1b for SIRT1 and SIRT2 assays; peptide 3b for SIRT3 assay), an inhibitor (peptide 1a, 2, or 3a) with varied concentrations including 0, and an enzyme (GST-SIRT1, 0.15 μM; SIRT2, 0.3 μM; or SIRT3, 2.0 μM). […] An enzymatic reaction was initiated by the addition of an enzyme at 37° C. and was allowed to be incubated at 37° C.: 10 minutes as follows: for SIRT1 assay, or 60 minutes for SIRT2 and SIRT3 assays. Incubation was quenched at the indicated time with the following stop solution: 100 mM HCl and 0.16 M acetic acid. The conversion of the limiting substrate to the product was maintained at ≦12%. The quenched assay solutions were directly injected into a reversed-phase HPLC C18 column (100 Å, 0.46×25 cm), eluting with the following gradients of ddH2O containing 0.05% (v/v) trifluoroacetic acid (mobile phase A) and acetonitrile containing 0.05% (v/v) trifluoroacetic acid (mobile phase B): linear increase from 0% B to 35% B (for SIRT1 assay) or 40% B (for SIRT2 and SIRT3 assays) from 0-40 minutes (1 mL/min), and UV monitoring at 214 nm. The enzymatic deacetylation products (peptide 1c in SIRT1 and SIRT2 assays; peptide 3c in SIRT3 assay) were confirmed by their comigration with the chemically synthesized authentic samples and by MALDI-TOF mass spectrometric analysis, and were quantified by HPLC peak integration and comparison with those of synthetic authentic samples. […] All peptide stock solutions were prepared in ddH2O. […]

SIRT3 = target: T2, SIRT3 (Homo sapiens, UniProt Q9NTG7); test: HPLC-based SIRT3 inhibition assay with purified SIRT3; type: biochemical; details: SIRT3 vs SIRT2
T2 construct: purchased
T2 sequence (Q9NTG7 1-399): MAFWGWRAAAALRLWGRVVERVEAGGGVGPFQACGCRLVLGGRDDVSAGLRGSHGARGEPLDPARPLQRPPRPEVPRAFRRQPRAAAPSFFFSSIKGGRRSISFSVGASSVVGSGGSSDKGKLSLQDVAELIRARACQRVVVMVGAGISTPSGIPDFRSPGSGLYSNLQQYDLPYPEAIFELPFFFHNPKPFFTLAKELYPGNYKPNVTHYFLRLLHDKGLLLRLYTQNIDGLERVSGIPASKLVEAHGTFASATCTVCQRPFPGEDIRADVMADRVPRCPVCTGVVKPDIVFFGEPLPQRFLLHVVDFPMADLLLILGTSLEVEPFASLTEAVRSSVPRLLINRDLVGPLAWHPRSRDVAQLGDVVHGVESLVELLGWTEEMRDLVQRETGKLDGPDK
Procedure: as §1

| Structure (SMILES) | inhibition potency for SIRT2 relative to SIRT3 (SIRT2) | formation of dethioacetylated peptide under sirtuin inhibition assay conditions (SIRT1, SIRT2, and SIRT3) | inhibition weaker for SIRT3 as compared to SIRT2 (SIRT3) |
| --- | --- | --- | --- |
| CC[C@H](C)[C@H](NC(=O)[C@@H](NC(=O)[C@H](CCCCN)NC(=O)[C@H](CCCNC(=N)N)NC(=O)[C@H](CC(C)C)NC(=O)[C@H](CC(C)C)NC(=O)[C@H](CCCNC(=N)N)NC(=O)[C@H](CCCNC(=N)N)NC(=O)[C@H](CCSC)NC(=O)[C@@H](NC(=O)[C@H](CCCCNC(C)=S)NC(=O)CNC(=O)[C@H](CO)NC(=O)[C@H](CCCNC(=N)N)NC(=O)[C@@H](NC(=O)[C@H](CCCCN)NC(=O)[C@@H]1CCCN1C(=O)[C@H](CC(C)C)NC(=O)[C@H](CCCNC(=N)N)NC(=O)[C@@H](N)CCCCN)[C@@H](C)O)C(C)C)[C@@H](C)CC)C(=O)O [Peptide 3a] (H-KRLPKTRSG[Lys(Thioacetyl)]VMRRLLRKII-OH) | comparably potent inhibitor | did not give rise to detectable formation |  |
| CC[C@H](C)[C@H](NC(=O)[C@@H](NC(=O)[C@H](CCCCNC(C)=S)NC(=O)[C@H](CC(=O)O)NC(=O)[C@H](CO)NC(=O)[C@@H]1CCCN1C(=O)[C@@H](N)CCSC)[C@@H](C)O)C(=O)NCC(=O)NCC(=O)O [Peptide 2] (H-MPSD[Lys(Thioacetyl)]TIGG-OH) |  | detectable formation | about 40 fold |
